Cytotoxicity data for 102 compounds are collected here from ChEMBL document CHEMBL3507680, “University of Dundee, Gates Library screen for HepG2 cell viability”.

SMILES strings stand for the structures.

The nature of this data set: Human HepG2 cell viability assay in 384 well format. The note with it: HepG2 cells, read-out: Inhibition. In kind it is toxicity, cell-based. Also noted: dose 125 nL, time 70.5 hour; concentration not given beside the values.
`CC(O)CN1CCN(C(=O)c2cccn2Cc2ccccc2)CC1` (configuration not stated): the cytotoxicity at 70.5 h is -1.63%.
`O=C(CCCc1nc(-c2ccccc2)no1)N1CCN(CCO)CC1`: the cytotoxicity at 70.5 h is 17.6%.
Regarding `CCC(O)CN1CCN(C(=O)c2cccc(CC#N)c2)CC1` (configuration not stated), the cytotoxicity at 70.5 h turned out to be 1.07%.
The same measure for `CN(C)c1ncccc1CNC(=O)N1CCCC1CN1CCCC1` (configuration not stated): 24.9%.
Take `COc1ccc(-c2nc(CN3CCc4cnc(C)nc4C3)no2)cc1`: the cytotoxicity at 70.5 h was -6.23%.
`COCCc1noc(CN(C)C2CCCN(c3cccnn3)C2)n1` (configuration not stated): the cytotoxicity at 70.5 h worked out at 22.9%.
As to `CC(C)c1ncc2c(n1)CN(Cc1noc(-c3ccccc3)n1)CC2`, the cytotoxicity at 70.5 h is 0.861%.
As for `CC(NC(=O)c1cccs1)C(=O)NCc1ccccn1` (configuration not stated), the figure is -2.68%.
`CCn1cnnc1CNC(=O)NC(c1cccs1)C1CCCC1` (configuration not stated): the cytotoxicity at 70.5 h was 19.6%.
The same measure for `COc1ncccc1CNC(=O)N1CCCC1c1ccsc1` (configuration not stated): -0.312%; for `Cc1ncsc1C(=O)NC1CCN(CCC#N)CC1`: 16.5%.
On to `O=C(NCc1cccnc1N1CCCCC1)c1cccs1`, for which the cytotoxicity at 70.5 h is -3.28%.
Consider `Cc1ncsc1C(=O)NC1CCN(CCCC#N)CC1`, for which the cytotoxicity at 70.5 h was -1.22%.
In the case of `Cc1cc(NC(=O)CN2CCc3cncnc3C2)on1`, the cytotoxicity at 70.5 h is 3.49%.
As for `Cc1nc(C)n(CC2CCCN2CC(=O)NC2CCOCC2)n1` (configuration not stated), the figure is 2.61%; as for `CCc1nnc(CN2CCN(CC(O)c3ccccc3)CC2)o1` (configuration not stated), -1.5%.
Consider `Cc1cc(C)n(CC2CCCCN2CC(=O)NC2CCOCC2)n1` (configuration not stated), for which the cytotoxicity at 70.5 h is 18.3%.
On to `O=C(c1cc2ccccc2[nH]1)N1CCCCC1Cn1cccn1` (configuration not stated), for which the cytotoxicity at 70.5 h is -1.58%.
Take `Cc1cc(C)n(C2CN(CC(O)c3ccc(C(F)(F)F)cc3)C2)n1` (configuration not stated): the cytotoxicity at 70.5 h was -4.01%.
For the compound `Cc1ncsc1C(=O)NC1CCN(Cc2ccc(C(F)(F)F)cc2)CC1`, the cytotoxicity at 70.5 h came out at 26.5%.
For `CCOCC(O)CN1CCN(C(=O)c2ccc(N(C)C)nn2)CC1` (configuration not stated), the cytotoxicity at 70.5 h was determined as 24.3%.
In the case of `CC(c1c(F)cccc1F)N1CCN(Cc2nccn2C)CC1` (configuration not stated), the cytotoxicity at 70.5 h was determined as 24.5%.
Regarding `Cn1c(C2CC2)nc2c1CCN(CC(=O)Nc1ccncc1)C2`, the cytotoxicity at 70.5 h turned out to be 4.27%.
Take `CCN(Cc1ccc2c(c1)OCO2)C(=O)NC(C)Cn1ccnc1` (configuration not stated): the cytotoxicity at 70.5 h was 1.66%.
In the case of `CCc1nc(CN2CCCN(C(=O)CC(F)(F)F)CC2)cs1`, the cytotoxicity at 70.5 h was determined as 1.28%.
Turning to `Cn1c(C2CC2)nc2c1CCN(CCOc1ccccc1C#N)C2`, the cytotoxicity at 70.5 h was 23.9%.
For `COc1ncccc1NC(=O)C1CC1`, the cytotoxicity at 70.5 h was -1.48%.
In the case of `CNC(=O)CN1CCC(NC(=O)Cc2ccc3c(c2)OCCO3)CC1`, the cytotoxicity at 70.5 h was determined as 0.523%.
Turning to `Cc1ccccc1C(=O)NCc1ccnc(N(C)C)c1`, the cytotoxicity at 70.5 h was found to be 0.094%.
Regarding `Cc1ccc(C(=O)NCc2ccnc(N(C)C)c2)c(C)c1`, the cytotoxicity at 70.5 h is 1.03%.
Turning to `O=C(NCCCN1CCCCCC1=O)c1n[nH]c(=O)c2ccccc12`, the cytotoxicity at 70.5 h is -2.46%.
Take `O=C(NCCN1CCCCCC1)c1n[nH]c(=O)c2ccccc12`: the cytotoxicity at 70.5 h was determined as 1.79%.
For the compound `O=C(Nc1cccnc1N1CCCC1)C1CCS(=O)(=O)C1` (configuration not stated), the cytotoxicity at 70.5 h is 1.04%.
`CC(C)c1noc(CCC(=O)NC2CCS(=O)(=O)C2)n1` (configuration not stated): the cytotoxicity at 70.5 h worked out at 0.473%.
As for `CC(C)(C)c1noc(CCC(=O)NCC2CCS(=O)(=O)C2)n1` (configuration not stated), the figure is 1.1%; as for `O=C(NCc1cc[nH]n1)NCC(O)c1ccccc1F` (configuration not stated), 0.0915%.
The same measure for `O=C(NCc1cc[nH]n1)NCC(O)c1ccc(F)cc1` (configuration not stated): 6.85%.
The same measure for `CN(C)c1cc(CNC(=O)c2ccc(Br)cc2F)ccn1`: -4.97%; for `COc1ncccc1NC(=O)C1CCOCC1`: 22.9%; for `Cn1cnc2c1CCN(CCOc1ccc(C#N)cc1)C2`: 1.67%.
Turning to `CC(C)c1nc2c(n1C)CCN(CCCOc1ccc(C#N)cc1)C2`, the cytotoxicity at 70.5 h stood at 2.99%.
Turning to `CN(C)c1ccc(C(=O)N2CCN(CC(C)(C)O)CC2)nn1`, the cytotoxicity at 70.5 h is -2.1%.
The same measure for `CN(C)c1ncccc1CNc1cc(N2CCCC2CO)ncn1` (configuration not stated): 10.5%.
On to `CC(C)c1noc(CCC(=O)NCC2CCC(C(N)=O)CC2)n1` (configuration not stated), for which the cytotoxicity at 70.5 h was found to be 1.53%.
Consider `Cc1nnc(NC(=O)CN2CCc3c(nc(C4CC4)n3C)C2)s1`, for which the cytotoxicity at 70.5 h is 6.62%.
For `CC(Cn1ccnc1)NC(=O)N(C)Cc1ccc2c(c1)OCO2` (configuration not stated), the cytotoxicity at 70.5 h worked out at 1.49%.
As for `CCc1nc(CN(C)C2CCN(CCC(=O)N3CCCCC3)C2)no1` (configuration not stated), the cytotoxicity at 70.5 h is 0.593%.
`CCc1[nH]ncc1C(=O)N1CCCC(n2cncn2)C1` (configuration not stated): the cytotoxicity at 70.5 h worked out at 1.79%.
`CN(CCC(=O)N1CCc2sccc2C1)Cc1ccc2c(c1)OCCO2`: the cytotoxicity at 70.5 h is -2.14%.
Turning to `Cc1cnn(CC2CN(Cc3noc(C4CC4)n3)CCO2)c1` (configuration not stated), the cytotoxicity at 70.5 h was -13.6%.
Turning to `c1cnn(CC2CN(Cc3nc(C4CC4)no3)CCO2)c1` (configuration not stated), the cytotoxicity at 70.5 h worked out at 19.7%.
As to `Cc1nnc(C(C)N2CCN(Cc3ccc4c(c3)OCO4)CC2)o1` (configuration not stated), the cytotoxicity at 70.5 h stood at 16.9%.
As for `Cc1nnc(C(C)N2CCN(Cc3ccc(C#N)cc3)CC2)o1` (configuration not stated), the cytotoxicity at 70.5 h was -6.02%.
`Cc1cccc(-c2ccc(C(=O)NCCN(C)C3CC3)c(=O)[nH]2)c1`: the cytotoxicity at 70.5 h was -34.3%.
As to `COc1cc(CNC(=O)CNc2cc(Cl)ccc2OC)ccn1`, the cytotoxicity at 70.5 h stood at 3.6%.
The same measure for `N#Cc1ccc(N2CCCN(C(=O)CC3CCCO3)CC2)cc1` (configuration not stated): -15.2%.
In the case of `Cc1nc(N2CCN(C(=O)c3ccsc3)CC2)c2cnn(C)c2n1`, the cytotoxicity at 70.5 h is -10.3%.
For `Cc1nn(C)c(Cl)c1C1CCCN1C(=O)c1ccc2c(c1)OCO2` (configuration not stated), the cytotoxicity at 70.5 h is -16.9%.
On to `COc1ccc(C(=O)NS(=O)(=O)c2ccc(C#N)cc2C(F)(F)F)cc1`, for which the cytotoxicity at 70.5 h was -16.9%.
Turning to `COc1ccc(CNC(C)c2ccc3[nH]c(=O)[nH]c3c2)cc1` (configuration not stated), the cytotoxicity at 70.5 h was -2.85%.
For the compound `Cc1cc(C(=O)O)cc(S(=O)(=O)Nc2ccc3c(c2)OCO3)c1C`, the cytotoxicity at 70.5 h came out at 20.2%.
As for `Cc1ccc(S(=O)(=O)N2CCOc3ccccc32)cc1C(N)=O`, the cytotoxicity at 70.5 h came to 14%.
As for `CCc1ccc(O)c(C(=O)NC2CCN(C(=O)OC)CC2)c1`, the figure is -10.9%; as for `CN1CCOC(CNC(=O)Cc2ccccc2F)C1` (configuration not stated), -8.56%.
Regarding `CN(Cc1ccccc1)CC(O)Cn1cnc2c(cnn2C)c1=O` (configuration not stated), the cytotoxicity at 70.5 h was -5.87%.
As to `N#Cc1cccc(S(=O)(=O)NC(=O)COc2ccc3c(c2)CCC3)c1`, the cytotoxicity at 70.5 h was 4.27%.
As for `Cc1cnn(C2CCCN(C(=O)c3sccc3C#N)C2)c1` (configuration not stated), the figure is 28.7%; as for `CC(C)(C)c1nnc(CN2CCOC(Cn3cncn3)C2)o1` (configuration not stated), -1.42%; as for `Cc1ccccc1-c1noc(CN2CCn3c(nnc3C3CC3)C2)n1`, 20.5%.
The same measure for `Cc1ccc2oc(C(=O)N3CCCC(c4noc(C)n4)C3)cc2n1` (configuration not stated): -5.41%.
For the compound `Cc1nnc2n1CCN(C(C(=O)NC1CC1)c1ccccc1)C2` (configuration not stated), the cytotoxicity at 70.5 h is -10.2%.
Regarding `NC(=O)c1ccc(S(=O)(=O)NC(=O)COc2ccc3c(c2)CCC3)cc1`, the cytotoxicity at 70.5 h is -6.16%.
The same measure for `COCc1nc(C(=O)NS(=O)(=O)c2ccc(C)s2)cs1`: -4.27%; for `COCc1nc(C(=O)NS(=O)(=O)c2ccc(C)cc2C)cs1`: -11.1%; for `CS(=O)(=O)c1ccc(NC(=O)NCc2ccc3c(c2)CCC3)cn1`: -2.56%.
For the compound `Cc1ccc(OCC(=O)NS(=O)(=O)c2c(C)noc2C)cc1C`, the cytotoxicity at 70.5 h is 25%.
In the case of `CC(C)c1nn(C)c(N2CCOCC2)c1CNCCS(C)(=O)=O`, the cytotoxicity at 70.5 h was determined as 3.3%.
For `CN(Cc1ccccc1)CC(O)Cn1cnc2ccsc2c1=O` (configuration not stated), the cytotoxicity at 70.5 h is -8.61%.
For `O=C(CCCOc1ccccc1Cl)N1CCCC(n2cncn2)C1` (configuration not stated), the cytotoxicity at 70.5 h came out at 11%.
As to `Cc1ncsc1C(=O)N(Cc1cccnc1)C1CC1`, the cytotoxicity at 70.5 h was determined as 3.01%.
`c1ccc(OCc2ccncc2)c(CNC2CCc3ncnn3C2)c1` (configuration not stated): the cytotoxicity at 70.5 h is 17.2%.
For the compound `CC(C)n1ccnc1CN1CCCN(C(=O)c2cc(Cl)c[nH]2)CC1`, the cytotoxicity at 70.5 h was -3.72%.
Turning to `CCc1nc(C2CCCN2CCCS(=O)(=O)c2ccccc2)no1` (configuration not stated), the cytotoxicity at 70.5 h is -7.66%.
As to `CC(C)c1nc(C2CCCN2Cc2ccn(C)c(=O)c2)no1` (configuration not stated), the cytotoxicity at 70.5 h was -0.609%.
Turning to `CCC1c2ccsc2CCN1C(=O)NCc1ccccn1` (configuration not stated), the cytotoxicity at 70.5 h was -6.47%.
In the case of `Cc1noc(C2CCN(C(=O)CCNS(C)(=O)=O)CC2)n1`, the cytotoxicity at 70.5 h is -17.2%.
The same measure for `Cc1c[nH]cc1C(=O)N1CCN(CCc2cccs2)CC1`: -5.85%; for `Cn1cc(NC(=O)N2CCC(c3ccccc3)CC2)ccc1=O`: -3.71%; for `CN1CCN(C(=O)c2cccc(OCc3cscn3)c2)CC1`: 4.86%.
On to `Cn1cc(NC(=O)N2CCC(CN3CCCC3)CC2)ccc1=O`, for which the cytotoxicity at 70.5 h is -0.384%.
Take `Cc1ccc(C(=O)N2CCN(CCC(C)(C)C)CC2)c(=O)[nH]1`: the cytotoxicity at 70.5 h was -6.54%.
As for `CC(C)(O)CN1CCN(C(=O)c2cccnc2O)CC1`, the figure is -2.58%; as for `NC(=O)c1cc(C2CCCN(CCOCC(F)(F)F)C2)n[nH]1` (configuration not stated), 34.2%.
For `Cn1cc(NC(=O)N2CCC(NS(C)(=O)=O)CC2)ccc1=O`, the cytotoxicity at 70.5 h came to 2.55%.
For the compound `NC(=O)c1cc(C2CCCN(CCCOc3ccccc3)C2)n[nH]1` (configuration not stated), the cytotoxicity at 70.5 h was -10.9%.
For `NC(=O)c1cc(C2CCCN(CCc3ccccn3)C2)n[nH]1` (configuration not stated), the cytotoxicity at 70.5 h is -10.6%.
As to `CN(Cc1noc(C2CC2)n1)C1CCN(Cc2ccncc2)C1` (configuration not stated), the cytotoxicity at 70.5 h was -9.86%.
Regarding `CC(C)N1CC(C(=O)NCc2ccnc(-n3cccn3)c2)CC1=O` (configuration not stated), the cytotoxicity at 70.5 h is -26.8%.
As for `CS(=O)(=O)NCC1CCCN(C(=O)COCC(F)(F)F)C1` (configuration not stated), the cytotoxicity at 70.5 h is -21%.
As to `CC(C)N1CCN(C(=O)Nc2cnn(CC(N)=O)c2)CC1`, the cytotoxicity at 70.5 h was found to be 18.2%.
Regarding `Cc1cnn(CC2CCCCN2Cc2cc(C)on2)c1` (configuration not stated), the cytotoxicity at 70.5 h was -18.5%.
On to `c1cnn(CC2CCCCN2Cc2cn3ccsc3n2)c1` (configuration not stated), for which the cytotoxicity at 70.5 h is -13.5%.
